Test results from patent US20120157464A1, “USE OF AZABICYCLOALKYL DERIVATIVES OR PYRROLIDINE-2-ONE DERIVATIVES FOR THE TREATMENT OR PREVENTION OF ATAXIA” (NOVARTIS AG, priority 2009, published 2012).

Assays:
FRDA = settings: cited from earlier work
human α7-nAChR = molecular target: T1, human α7-nAChR (Homo sapiens, UniProt P36544); assay: functional calcium (FLIPR) assay in GH3 cells recombinantly expressing human α7-nAChR; assay type: cell-based; settings: for EC50: GH3 cells expressing human α7-nAChR, calcium FLIPR, read-out: α7-nAChR activity Potency EC50
T1 construct: expressed in transfected cells; host or cells: GH3 cells
T1 sequence (P36544 23-502): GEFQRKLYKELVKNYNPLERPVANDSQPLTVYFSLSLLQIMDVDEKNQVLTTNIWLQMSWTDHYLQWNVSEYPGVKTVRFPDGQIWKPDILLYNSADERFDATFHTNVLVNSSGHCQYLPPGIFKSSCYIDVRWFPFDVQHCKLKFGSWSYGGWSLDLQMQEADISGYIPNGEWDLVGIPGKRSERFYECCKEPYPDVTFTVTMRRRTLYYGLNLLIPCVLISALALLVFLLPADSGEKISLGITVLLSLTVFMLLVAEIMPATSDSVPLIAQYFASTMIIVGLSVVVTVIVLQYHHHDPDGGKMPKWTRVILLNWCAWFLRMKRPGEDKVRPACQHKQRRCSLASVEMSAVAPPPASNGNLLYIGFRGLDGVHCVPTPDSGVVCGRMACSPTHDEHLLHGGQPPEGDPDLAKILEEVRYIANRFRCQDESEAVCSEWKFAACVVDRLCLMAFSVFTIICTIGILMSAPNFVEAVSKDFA
Experimental: Assay. To assess a7-nAChR activity, a functional assay was employed using GH3 cells that recombinantly expressed human α7-nAChR, 5×10^4 cells per well were seeded 72 h prior to the experiment on black 96-well plates (Costar) and incubated at 37° C. in a humidified atmosphere (5% CO2/95% air). On the day of the experiment, medium was removed by flicking the plates and replaced with 100 μl growth medium containing […] Fluo-4, (Molecular Probes) in the presence of 2.5 mM probenecid (Sigma). The cells were incubated at 37° C. in a humidified atmosphere (5% CO2/95% air) for 1 h. Plates were flicked to remove excess of Fluo-4, washed twice with Hepes-buffered salt solution (in mM: NaCl 130, KCl 5.4 CaCl2 2, MgSO4 0.8, NaH2PO4 0.9, glucose 25, Hepes 20, pH 7.4; HBS) and refilled with 100 μl of HBS containing antagonist when appropriate. The incubation in the presence of the antagonist lasted 3-5 minutes. Plates were placed in the cell plate stage of a FLIPR device (fluorescent imaging plate reader, Molecular Devices, Sunnyvale, Calif., USA).
After recording of the baseline (laser: excitation 488 nm at 1 W, CCD camera opening of 0.4 seconds) the agonists (50 μl) were added to the cell plate using the FLIPR 96-tip pipettor while simultaneously recording the fluorescence, Calcium kinetic data were normalized to the maximal fitted response induced by epibatidine, which is a full agonist at α7-nAChR, Four parameter Hill equations were fitted to the concentration-response. Values of Emax (maximal effect in % compared to the epibatidine response) and EC50 (concentration producing half the maximal effect in μM) were derived from this fit.
(§1) Assay described in: D Feuerbach et al, Neuropharmacology (2005), 48, 215-227. To assess the activity of the compound of the invention on the human neuronal nAChR α4β2, a similar functional assay is carried out using a human epithelial cell line stably expressing the human α4β2 subtype (Michelmore et al., Naunyn-Schmiedeberg's Arch. Pharmacol. (2002) 366, 235),

[1] = molecular target: T2, human neuronal nAChR α4β2 (Homo sapiens, UniProt P17787+P43681); assay: similar functional assay in a human epithelial cell line stably expressing the human α4β2 subtype; assay type: cell-based
T2 construct: expressed in transfected cells
T2 sequence (P43681 29-627 limits assumed): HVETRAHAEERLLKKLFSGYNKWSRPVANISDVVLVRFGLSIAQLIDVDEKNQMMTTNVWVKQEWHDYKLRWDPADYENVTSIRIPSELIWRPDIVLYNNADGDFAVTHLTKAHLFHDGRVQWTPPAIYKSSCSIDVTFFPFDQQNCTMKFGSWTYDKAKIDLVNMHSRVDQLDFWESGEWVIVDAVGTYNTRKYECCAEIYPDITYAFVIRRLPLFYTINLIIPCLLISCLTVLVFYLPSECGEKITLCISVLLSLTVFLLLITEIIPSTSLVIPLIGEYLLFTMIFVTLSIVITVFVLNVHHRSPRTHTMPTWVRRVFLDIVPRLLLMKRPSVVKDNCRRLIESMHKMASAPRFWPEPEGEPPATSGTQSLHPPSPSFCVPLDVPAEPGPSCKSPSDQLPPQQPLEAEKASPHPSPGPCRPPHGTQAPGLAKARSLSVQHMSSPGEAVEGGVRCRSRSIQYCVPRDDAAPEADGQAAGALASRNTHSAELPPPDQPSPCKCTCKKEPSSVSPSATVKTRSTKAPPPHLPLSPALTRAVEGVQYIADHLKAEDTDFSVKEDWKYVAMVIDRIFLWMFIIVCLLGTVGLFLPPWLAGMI
T2 sequence (P17787 26-502): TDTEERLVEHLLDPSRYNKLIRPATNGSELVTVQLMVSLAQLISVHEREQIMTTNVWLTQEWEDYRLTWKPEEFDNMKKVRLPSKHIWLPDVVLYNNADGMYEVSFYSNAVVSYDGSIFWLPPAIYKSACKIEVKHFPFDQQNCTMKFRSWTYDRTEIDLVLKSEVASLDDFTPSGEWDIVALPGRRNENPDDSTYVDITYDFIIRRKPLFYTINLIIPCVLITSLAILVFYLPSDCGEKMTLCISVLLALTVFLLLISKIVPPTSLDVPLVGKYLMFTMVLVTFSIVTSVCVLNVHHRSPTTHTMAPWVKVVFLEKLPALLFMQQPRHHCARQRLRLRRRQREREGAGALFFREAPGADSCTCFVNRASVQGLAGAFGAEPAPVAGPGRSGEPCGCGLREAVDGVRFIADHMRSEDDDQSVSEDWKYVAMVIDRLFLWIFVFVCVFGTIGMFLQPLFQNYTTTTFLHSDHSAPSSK
Experimental: as §1

[2] = Oral bioavailability and brain penetration in mice; assay type: in vivo; settings: 30 μmol/kg p.o.; for concentration at 0.25 h / concentration at 0.5 h / concentration at 1 h / concentration at 2 h / concentration at 4 h / concentration at 8 h: plasma
Experimental: Assay: Compounds were orally (30 μmol/kg) administered. Male mice (30-35 g, OF1/ICstrain) were sacrificed at indicated time points after oral administration. Trunk-blood was collected in EDTA-containing tubes and the brain was removed and immediately frozen on dry ice. To 100 μl plasma 10 μl internal standard (1.0 μmol of a compound with solubility and ionization properties similar to test compounds) was added and extracted three times with 500 μl dichloromethane. The combined extracts were then dried under a stream of nitrogen and re-dissolved in 100 μl acetonitrile/water (70% acetonitrile). Brains were weighed and homogenized in water (1:5 w/v). Two 100 μl aliquots of each homogenate 4-10 μl of internal standard (same standard as used for the plasma samples) were extracted three times with 500 μl dichlorornethane and further processed as the plasma samples. Samples were separated on Beckmann high-performance liquid chromatography equipment system with an autosampler (Gilson 233XL).
The limit of detection (LOD), defined as the lowest concentration of the extracted standard sample with a signal to noise ratio of ˜3.

mice = assay: Social Recognition Test in mice; assay type: in vivo; settings: oral, familiar partner at 24 h vs time 0
Experimental: Assay: Social interactions between two experimental animals are influenced by their degree of familiarity: the better they know each other, the less time they spend on mutual scrutiny at each meeting. […] Memory enhancing agents (i.e. oxiracetam) facilitate learning to the extent that the previously met (familiar) partner is still remembered after 24 h, whereas in vehicle treated control animals the memory usually fades after less than 1 hour (Thor and Holloway, 1982) or after 2-3 hours.
Baseline-test: Pairs consisting of one adult and one young mouse were assigned at random to the experimental and control groups. In each pair only the adult mouse was orally treated 1 hour before the trial with either vehicle or the test compound. The duration of active contacts of the adult mouse with the young mouse was manually recorded over a period of 3 min, including the following behavioural, approach-related items: sniffing, nosing, grooming, licking, pawing and playing, anogenital exploration and orientation toward the young mouse; orientation, thereby, was defined as tip of nose of the adult mouse less than approximately 1 cm distant from the young mouse's body. […]

patients with FRDA = settings: two patients with FRDA, varenicline p.o. 0.5 mg/kg per day; cited from earlier work
patients with SCA3/SCA14 = settings: two patients with SCA3/SCA14, varenicline p.o. 0.5 mg/kg per day; cited from earlier work
[3] = clinical use in humans; cited from earlier work
[4] = male, OF1/IC, mouse, brain, po, 30 umol/kg, 0.25 hour, read-out: Ratio Brain/plasma
[5] = male, OF1/IC, mouse, brain, po, 30 umol/kg, 0.5 hour, read-out: Ratio Brain/plasma
[6] = male, OF1/IC, mouse, brain, po, 30 umol/kg, 1 hour, read-out: Ratio Brain/plasma
[7] = male, OF1/IC, mouse, brain, po, 30 umol/kg, 2 hour, read-out: Ratio Brain/plasma
[8] = male, OF1/IC, mouse, brain, po, 30 umol/kg, 4 hour, read-out: Ratio Brain/plasma
[9] = male, OF1/IC, mouse, brain, po, 30 umol/kg, 8 hour, read-out: Ratio Brain/plasma
[10] = male, OF1/IC, mouse, po, 0.25 hour
[11] = male, OF1/IC, mouse, po, 0.5 hour
[12] = male, OF1/IC, mouse, po, 1 hour
[13] = male, OF1/IC, mouse, po, 2 hour
[14] = male, OF1/IC, mouse, po, 4 hour
[15] = male, OF1/IC, mouse, po, 8 hour

COC1=C(OC)C(=O)C(CCCCCCCCCCO)=C(C)C1=O [idebenone]
effects in clinical trials for FRDA (FRDA): showed effects in clinical trials

c1cc2cc(-c3cnc(O[C@H]4CCN5CCC[C@@H]4C5)nc3)ccc2[nH]1 [Compound C-1, (4S,5R)-4-[5-(1H-indol-5-yl)-pyrimidin-2-yloxy]-1-aza-bicyclo[3.3.1]nonane]
EC50 (human α7-nAChR): 0.024 µM | EC50 [1]: > 100 µM | IC50 [1]: 9.33 µM | Brain ([2]; 0.25 hour): 620 ± 221 pmoles/g ± SD | Brain ([2]; 0.5 hour): 1405 ± 539 pmoles/g ± SD | Brain ([2]; 1 hour): 1458 ± 189 pmoles/g ± SD | Brain ([2]; 2 hour): 1478 ± 259 pmoles/g ± SD | Brain ([2]; 4 hour): 842 ± 187 pmoles/g ± SD | Brain ([2]; 8 hour): 362 ± 62 pmoles/g ± SD | Kp at 0.25 h [2, 4]: 0.39 | Kp at 0.5 h [2, 5]: 0.41 | Kp at 1 h [2, 6]: 1.17 | Kp at 2 h [2, 7]: 1.69 | Kp at 4 h [2, 8]: 1.11 | Kp at 8 h [2, 9]: 1.51 | concentration at 0.25 h [2, 10]: 1600 ± 758 nM | concentration at 0.5 h [2, 11]: 3410 ± 956 nM | concentration at 1 h [2, 12]: 1240 ± 583 nM | concentration at 2 h [2, 13]: 875 ± 261 nM | concentration at 4 h [2, 14]: 762 ± 159 nM | concentration at 8 h [2, 15]: 239 ± 27 nM

Cc1c(O)c(=O)ccn1C [deferiprone]
effects in clinical trials for FRDA (FRDA): showed effects in clinical trials

C[C@H](OC(=O)N[C@@H]1CN2CCC1CC2)c1ccccc1F [Compound A-1, (S)-(1-aza-bicyclo[2.2.2]oct-3-yl)-carbamic acid S-1-(2-fluoro-phenyl)ethylester]
α7-nAChR activity Efficacy compared to epibatidine (100%) (human α7-nAChR; Emax, maximal effect in % compared to the epibatidine response): 83% | IC50 [1]: 23.4 µM | Brain ([2]; 0.5 hour): 706.3 ± 153.4 pmoles/g ± SD | Plasma ([2]; 0.5 hour): 634.9 ± 261.3 pmoles/ml ± SD | Brain ([2]; 1 hour): 573.7 ± 109.3 pmoles/g ± SD | Plasma ([2]; 1 hour): 684.7 ± 339.6 pmoles/ml ± SD | Brain ([2]; 2 hour): 191.9 ± 34.9 pmoles/g ± SD | Plasma ([2]; 2 hour): 168.2 ± 91.3 pmoles/ml ± SD | Brain ([2]; 4 hour): 104.6 ± 39.6 pmoles/g ± SD | Plasma ([2]; 4 hour): 85.0 ± 54.3 pmoles/ml ± SD | Brain ([2]; 6 hour): 40.5 ± 12.1 pmoles/g ± SD | Plasma ([2]; 6 hour): 29.5 ± 13.8 pmoles/ml ± SD | Brain ([2]; 24 hour): 9.1 ± 2.7 pmoles/g ± SD | Plasma ([2]; 24 hour): 3.8 ± 0.6 pmoles/ml ± SD | Kp at 0.5 h [2, 5]: 1.1 | Kp at 1 h [2, 6]: 0.8 | Kp at 2 h [2, 7]: 1.1 | Kp at 4 h [2, 8]: 1.2 | Kp at 6 h ([2]; male, OF1/IC, mouse, brain, po, 30 umol/kg, 6 hour, read-out: Ratio Brain/plasma): 1.4 | Kp at 24 h ([2]; male, OF1/IC, mouse, brain, po, 30 umol/kg, 24 hour, read-out: Ratio Brain/plasma): 2.4 | Reduction in time scrutinizing in % ± SEM at 24 h (mice; dose 3 mg/kg): 52 ± 4 % ± SEM

C[C@H]1[C@H](Oc2ccc(-c3ccc4[nH]ccc4c3)nn2)C2CCN1CC2 [Compound B-13, (2S,3R)-3-[6-(1H-indol-5-yl)-pyridazin-3-yloxy]-2-methyl-1-aza-bicyclo[2.2.2]octane]
EC50 (human α7-nAChR): 0.013 µM | EC50 [1]: > 100 µM | IC50 [1]: 4.22 µM | Brain ([2]; 0.25 hour): 1884 ± 291 pmoles/g ± SD | Brain ([2]; 0.5 hour): 2960 ± 706 pmoles/g ± SD | Brain ([2]; 1 hour): 2940 ± 335 pmoles/g ± SD | Brain ([2]; 2 hour): 1260 ± 172 pmoles/g ± SD | Brain ([2]; 4 hour): 379 ± 134 pmoles/g ± SD | Brain ([2]; 8 hour): 93 ± 30 pmoles/g ± SD | Brain ([2]; 24 hour): 13 ± 4 pmoles/g ± SD | Kp at 0.25 h [2, 4]: 0.86 | Kp at 0.5 h [2, 5]: 1.31 | Kp at 1 h [2, 6]: 1.89 | Kp at 2 h [2, 7]: 1.07 | Kp at 4 h [2, 8]: 0.88 | Kp at 8 h [2, 9]: 1.17 | concentration at 0.25 h [2, 10]: 2200 ± 397 nM | concentration at 0.5 h [2, 11]: 2260 ± 419 nM | concentration at 1 h [2, 12]: 1550 ± 523 nM | concentration at 2 h [2, 13]: 1170 ± 252 nM | concentration at 4 h [2, 14]: 429 ± 167 nM | concentration at 8 h [2, 15]: 80 ± 23 nM | Reduction in time scrutinizing in % ± SEM at 24 h (mice; dose 0.3 mg/kg): 37 ± 7 % ± SEM

c1cnc2cc3c(cc2n1)C1CNCC3C1 [varenicline, 7,8,9,10-tetrahydro-6,10-methano-6H-pyrazino-(2,3-h)(3)-benzazepine]
ataxia improvements in patients (patients with FRDA): showed improvements | ataxia improvements in patients (patients with SCA3/SCA14): showed improvements | adverse effects reported during clinical use [3]: nausea, sleep disturbance, constipation, vivid dreams, flatulence and vomiting
